# Key:
# Relaxin receptor 1 = molecular target: T1, Relaxin receptor 1 (Homo sapiens, UniProt Q9HBX9); assay: Negative allosteric modulation of human RXFP1 receptor expressed in CHO-K1 cells assessed as cAMP accumulation incubated for 30 mins by TR-FRET assay; assay type: functional, cell-based
# T1 sequence (Q9HBX9 whole entry): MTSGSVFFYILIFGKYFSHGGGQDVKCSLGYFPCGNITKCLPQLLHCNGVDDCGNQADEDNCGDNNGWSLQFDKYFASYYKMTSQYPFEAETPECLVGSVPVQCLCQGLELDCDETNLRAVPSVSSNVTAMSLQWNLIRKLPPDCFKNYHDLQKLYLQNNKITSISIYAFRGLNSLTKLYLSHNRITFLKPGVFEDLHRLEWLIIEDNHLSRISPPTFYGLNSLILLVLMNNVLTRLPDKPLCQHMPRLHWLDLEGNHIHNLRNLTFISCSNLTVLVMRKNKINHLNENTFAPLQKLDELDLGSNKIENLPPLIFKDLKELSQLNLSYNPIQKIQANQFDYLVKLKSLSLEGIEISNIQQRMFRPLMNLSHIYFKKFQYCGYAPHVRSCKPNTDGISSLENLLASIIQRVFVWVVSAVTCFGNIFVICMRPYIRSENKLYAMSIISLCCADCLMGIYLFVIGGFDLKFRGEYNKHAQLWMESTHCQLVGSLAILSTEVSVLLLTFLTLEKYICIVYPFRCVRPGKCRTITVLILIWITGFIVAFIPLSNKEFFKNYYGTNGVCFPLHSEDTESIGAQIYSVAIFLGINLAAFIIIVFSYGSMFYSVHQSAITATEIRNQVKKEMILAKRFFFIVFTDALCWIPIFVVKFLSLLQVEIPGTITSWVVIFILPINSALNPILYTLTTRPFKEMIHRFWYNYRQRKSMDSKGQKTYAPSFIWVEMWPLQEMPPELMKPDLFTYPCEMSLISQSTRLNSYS
# Relaxin-3 receptor 2 = Relaxin-3 receptor 2 (Homo sapiens, UniProt Q8TDU9); assay: Negative allosteric modulation of human RXFP4 receptor expressed in CHO-K1 cells assessed as cAMP accumulation incubated for 30 mins by TR-FRET assay; assay type: functional, cell-based
# Sequence of Relaxin-3 receptor 2 (Q8TDU9 whole entry): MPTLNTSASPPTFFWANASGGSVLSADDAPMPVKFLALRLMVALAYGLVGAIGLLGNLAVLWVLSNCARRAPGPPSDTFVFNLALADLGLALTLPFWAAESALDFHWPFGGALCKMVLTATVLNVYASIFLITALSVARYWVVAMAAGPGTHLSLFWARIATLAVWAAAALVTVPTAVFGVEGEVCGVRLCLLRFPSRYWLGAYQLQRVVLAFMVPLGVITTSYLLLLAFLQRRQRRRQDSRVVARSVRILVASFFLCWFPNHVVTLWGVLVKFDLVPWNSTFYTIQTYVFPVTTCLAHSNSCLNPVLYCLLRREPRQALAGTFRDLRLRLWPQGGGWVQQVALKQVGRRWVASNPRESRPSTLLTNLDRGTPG
# Relaxin-3 receptor 1 [1] = molecular target: T2, Relaxin-3 receptor 1 (Homo sapiens, UniProt Q9NSD7); assay: Negative allosteric modulation of human RXFP3 receptor expressed in CHO-K1 cell membrane assessed as inhibition of relaxin-3-induced stimulation of [35S]GTPgammaS binding followed by relaxin-3 addition and measured after 1 hr; assay type: functional, cell membranes
# T2 sequence (Q9NSD7 whole entry): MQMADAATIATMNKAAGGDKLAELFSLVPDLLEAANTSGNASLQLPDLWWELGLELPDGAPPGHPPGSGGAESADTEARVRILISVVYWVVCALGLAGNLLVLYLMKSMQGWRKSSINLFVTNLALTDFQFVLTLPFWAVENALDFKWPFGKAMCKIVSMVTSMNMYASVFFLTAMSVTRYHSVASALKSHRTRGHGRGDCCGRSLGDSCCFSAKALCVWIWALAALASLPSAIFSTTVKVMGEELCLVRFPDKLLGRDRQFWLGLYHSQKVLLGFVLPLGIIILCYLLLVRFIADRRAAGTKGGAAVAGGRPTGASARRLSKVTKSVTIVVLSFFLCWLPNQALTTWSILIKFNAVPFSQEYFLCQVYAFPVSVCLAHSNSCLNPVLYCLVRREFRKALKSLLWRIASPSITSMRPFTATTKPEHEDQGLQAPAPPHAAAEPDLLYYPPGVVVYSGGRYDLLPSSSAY
# Relaxin-3 receptor 1 [2] = molecular target: T2, Relaxin-3 receptor 1; assay: Negative allosteric modulation of human RXFP3 receptor expressed in CHO-K1 cells assessed as cAMP accumulation incubated for 30 mins in presence of forskolin by TR-FRET assay; assay type: functional, cell-based
# [3] = Apparent permeability compound across apical to basolateral side in MDCK-MDR1 cells at 10 uM incubated for 30 to 90 mins; assay type: ADME, cell-based, Canis lupus familiaris; conditions: dog
# [4] = Apparent permeability of compound across basolateral to apical side in MDCK-MDR1 cells at 10 uM incubated for 30 to 90 mins; assay type: ADME, cell-based, Canis lupus familiaris; conditions: dog
# [5] = Efflux ratio of apparent permeability across basolateral to apical over apical to basolateral side in MDCK-MDR1 cells at 10 uM incubated for 30 to 90 mins; assay type: ADME, cell-based, Canis lupus familiaris; conditions: dog, time 30-90 min
# [6] = Metabolic stability in rat liver microsomes assessed as clearance measured up to 45 mins by LC-MS/MS analysis; assay type: ADME, Microsome; conditions: 0.75 h
# [7] = Metabolic stability in rat liver microsomes assessed as half life measured up to 45 mins by LC-MS/MS analysis; assay type: ADME, Microsome
# [8] = Kinetic solubility of compound in PBS at pH 7.4 incubated under agitation for 2 hrs by LC-MS/MS analysis; assay type: physicochemical
# [9] = AUClast in male Wistar rat plasma at 10 mg/kg, ip administrated as single dose and measured 24 hrs post dose by LC-MS/MS analysis; assay type: ADME, organism-based
# [10] = Brain concentration in female Wistar rat at 10 mg/kg, ip measured after 24 hrs; assay type: ADME, organism-based; conditions: in vivo
# [11] = Tmax in male Wistar rat brain at 10 mg/kg, ip measured 24 hrs post dose by LC-MS/MS analysis; assay type: ADME, organism-based; conditions: in vivo
# [12] = Cmax in female Wistar rat plasma at 10 mg/kg, ip administrated as single dose and measured 24 hrs post dose by LC-MS/MS analysis; assay type: ADME, organism-based; conditions: in vivo
# [13] = AUClast in male Wistar rat brain at 10 mg/kg, ip measured 24 hrs post dose by LC-MS/MS analysis; assay type: ADME, organism-based
# [14] = Tmax in male Wistar rat plasma at 10 mg/kg, ip administrated as single dose and measured 24 hrs post dose by LC-MS/MS analysis; assay type: ADME, organism-based; conditions: in vivo
# [15] = AUClast in female Wistar rat plasma at 10 mg/kg, ip administrated as single dose and measured 24 hrs post dose by LC-MS/MS analysis; assay type: ADME, organism-based
# [16] = Clearance in female Wistar rat plasma at 10 mg/kg, ip administrated as single dose and measured 24 hrs post dose by LC-MS/MS analysis; assay type: ADME, organism-based
# [17] = Cmax in female Wistar rat brain at 10 mg/kg, ip measured 24 hrs post dose by LC-MS/MS analysis; assay type: ADME, organism-based
# [18] = Clearance in male Wistar rat plasma at 10 mg/kg, ip administrated as single dose and measured 24 hrs post dose by LC-MS/MS analysis; assay type: ADME, organism-based
# [19] = AUClast in female Wistar rat brain at 10 mg/kg, ip measured 24 hrs post dose by LC-MS/MS analysis; assay type: ADME, organism-based
# [20] = Tmax in female Wistar rat plasma at 10 mg/kg, ip administrated as single dose and measured 24 hrs post dose by LC-MS/MS analysis; assay type: ADME, organism-based; conditions: in vivo
# [21] = Plasma protein binding in Wistar rat at 1 uM incubated for 6 hrs by LC-MS/MS analysis; assay type: ADME, cell-free
# [22] = Tmax in female Wistar rat brain at 10 mg/kg, ip measured 24 hrs post dose by LC-MS/MS analysis; assay type: ADME, organism-based; conditions: in vivo
# [23] = Cmax in male Wistar rat brain at 10 mg/kg, ip measured 24 hrs post dose by LC-MS/MS analysis; assay type: ADME, organism-based
# [24] = Brain concentration in male Wistar rat at 10 mg/kg, ip measured after 24 hrs; assay type: ADME, organism-based; conditions: in vivo
# [25] = Cmax in male Wistar rat plasma at 10 mg/kg, ip administrated as single dose and measured 24 hrs post dose by LC-MS/MS analysis; assay type: ADME, organism-based; conditions: in vivo
# [26] = Half life in male Wistar rat plasma at 10 mg/kg, ip administrated as single dose and measured 24 hrs post dose by LC-MS/MS analysis; assay type: ADME, organism-based; conditions: in vivo
# [27] = Half life in female Wistar rat plasma at 10 mg/kg, ip administrated as single dose and measured 24 hrs post dose by LC-MS/MS analysis; assay type: ADME, organism-based; conditions: in vivo
# [28] = mdck-mdr1, 10 µM, time 30-90 min
compound,measurement,setting,value
CNCCN1CCC(C(=O)Nc2ccc(-c3nc(-c4ccc(Cl)cc4)no3)cc2)CC1,IC50,Relaxin receptor 1,> 100000 nM
same,IC50,Relaxin-3 receptor 2,14300 nM
CNCC(=O)Nc1ccc(-c2nc(-c3ccc(Cl)cc3)no2)cc1,IC50,Relaxin-3 receptor 1 [1],2630 nM
O=C(Nc1ccc(-c2nc(-c3ccc(Cl)cc3)no2)cc1)C1CC(=O)N(CC2CCCCN2)C1 (racemic),IC50,Relaxin-3 receptor 1 [1],960 nM
O=C(Nc1ccc(-c2nc(-c3ccc(Cl)cc3)no2)cc1)C1CC(=O)N(Cc2cccnc2)C1 (stereo not given),IC50,Relaxin-3 receptor 1 [1],2630 nM
CNCCCN1CC(C(=O)Nc2ccc(-c3nc(-c4ccc(Cl)cc4)no3)cc2)CC1=O (stereo not given),IC50,Relaxin-3 receptor 1 [1],1180 nM
CNCCCC(=O)Nc1ccc(-c2nc(-c3ccc(Cl)cc3)no2)cc1,IC50,Relaxin-3 receptor 1 [1],2090 nM
NCCN1CC(C(=O)Nc2ccc(-c3nc(-c4ccc(Cl)cc4)no3)cc2)CC1=O (stereo not given),IC50,Relaxin-3 receptor 1 [1],1450 nM
O=C(Nc1ccc(-c2nc(-c3ccc(Cl)cc3)no2)cc1)C1CC(=O)N(CC2CCNCC2)C1 (stereo not given),IC50,Relaxin-3 receptor 1 [1],710 nM
CNCCC(=O)Nc1ccc(-c2nc(-c3ccc(Cl)cc3)no2)cc1,IC50,Relaxin receptor 1,19600 nM
same,IC50,Relaxin-3 receptor 1 [2],590 nM
same,IC50,Relaxin-3 receptor 1 [1],1050 nM
same,IC50,Relaxin-3 receptor 2,4870 nM
O=C(Nc1ccc(-c2nc(-c3ccc(Cl)cc3)no2)cc1)C1CC(=O)N(CC2CCNC2)C1 (racemic),IC50,Relaxin-3 receptor 1 [1],1700 nM
O=C(Nc1ccc(-c2nc(-c3ccc(Cl)cc3)no2)cc1)C1CC(=O)N(Cc2ccco2)C1 (stereo not given),Papp A→B at 10 µM,"[3]; MDCK-MDR1, time 30-90 min",1.3 ×10⁻⁶ cm/s
same,Papp B→A at 10 µM,"[4]; MDCK-MDR1, time 30-90 min",1.3 ×10⁻⁶ cm/s
same,IC50,Relaxin-3 receptor 1 [2]; cho-k1,2360 nM
same,efflux ratio at 10 µM,[5],1
same,IC50,Relaxin-3 receptor 1 [1],3020 nM
same,CLH,[6],132 µL/min/mg
same,half-life,[7]; liver microsomes,0.177 h
same,solubility kinetic at 2 h,"[8]; PBS, pH 7.4, read-out: Kinetic_solubility",< 1 µM
O=C(Nc1ccc(-c2nc(-c3ccc(Cl)cc3)no2)cc1)[C@@H]1CC(=O)N(C[C@@H]2CCCNC2)C1,IC50,Relaxin receptor 1,> 100000 nM
same,AUC(0-t) at 24 h,[9],7370 ng·h/mL
same,Drug uptake,[10],Active
same,Tmax,[11],1 h
same,Cmax,[12],2117 ng/mL
same,Papp,[3]; [28],1.1 10^-6 cm/s
same,AUC(0-t) at 24 h,[13],3270 ng·h/mL
same,Papp,[4]; [28],3.1 10^-6 cm/s
same,Tmax,[14],0.5 h
same,AUC(0-t) at 24 h,[15],8130 ng·h/mL
same,CL/F,[16],18 mL/min/kg
same,Cmax,[17],157 ng/mL
same,CLH,[6],6.8 µL/min/mg
same,CL/F,[18],18 mL/min/kg
same,AUC(0-t) at 24 h,[19],1930 ng·h/mL
same,IC50,Relaxin-3 receptor 2,> 100000 nM
same,Tmax,[20],0.5 h
same,t1/2,"[7]; microsomes, 0.75 h",3.42 h
same,PPB,[21],98%
same,Tmax,[22],2 h
same,Cmax,[23],185 ng/mL
same,Drug uptake,[24],Active
same,Cmax,[25],2121 ng/mL
same,Kinetic_solubility,"[8]; buffer, pH 7.4, 2 h",10.1 µM
same,t1/2,[26],12 h
same,t1/2,[27],10 h
CNCCN1CC(C(=O)Nc2ccc(-c3nc(-c4ccc(Cl)cc4)no3)cc2)CC1=O (stereo not given),IC50,Relaxin receptor 1,> 100000 nM
same,IC50,Relaxin-3 receptor 2,34300 nM

# — ChEMBL document CHEMBL6109135, “Development of Diphenyl-1,2,4-Oxadiazole Analogues as Allosteric Modulators of the RXFP3 Receptor: Evaluation of Importance of the N-Substituted-2-Pyrrolidone Moiety in RLX-33” (J Med Chem, 2025)
